Data taken from patent US10597388B2, “Pyridazinone herbicides” (FMC CORPORATION, priority 2014, dated 2020).

Columns and labels:
Assay in all cases: Test D controlled growth environment herbicide test, pre- and postemergence
Type in all cases: in vivo
[1] = system: barley, spring (spring barley, Hordeum vulgare)
In short: (§1)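 Species sown in silt loam and sprayed preemergence, or grown in peat-based medium to 2–18 cm (1- to 4-leaf stage) and sprayed postemergence, with compounds in non-phytotoxic solvent plus surfactant. Visual injury scored versus controls after 14–21 d in a controlled environment, 0 (no effect) to 100 (complete control).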

[2] = system: field poppy (Papaver rhoeas)
In short: as §1

[3] = system: blackgrass (Alopecurus myosuroides)
In short: as §1

kochia (Kochia scoparia) = system: kochia (Kochia scoparia)
In short: as §1

[4] = system: galium (catchweed bedstraw, Galium aparine)
In short: as §1

[5] = system: chamomile (scentless chamomile, Matricaria inodora)
In short: as §1

[6] = system: lambsquarters (Chenopodium album)
In short: as §1

[7] = system: oilseed rape (Brassica napus)
In short: as §1

[8] = system: chickweed (common chickweed, Stellaria media)
In short: as §1

[9] = system: bromegrass, downy (downy bromegrass, Bromus tectorum)
In short: as §1

[10] = system: canarygrass (Phalaris minor)
In short: as §1

[11] = system: foxtail, green (green foxtail, Setaria viridis)
In short: as §1

[12] = system: wheat, spring (spring wheat, Triticum aestivum)
In short: as §1

[13] = system: deadnettle (henbit deadnettle, Lamium amplexicaule)
In short: as §1

[14] = Postemergence, 31 g ai/ha, scale 0 to 100 (0 no effect, 100 complete control)
[15] = Postemergence, 125 g ai/ha, visual rating on scale 0 (no effect) to 100 (complete control), 14 to 21 d
[16] = Postemergence, 250 g ai/ha, scale 0 to 100 (0 no effect, 100 complete control)
[17] = Preemergence, 62 g ai/ha, scale 0 to 100 (0 no effect, 100 complete control)
[18] = Preemergence, 125 g ai/ha, scale 0 to 100 (0 no effect, 100 complete control)
[19] = Preemergence, 250 g ai/ha, scale 0 to 100, 0 no effect, 100 complete control
[20] = postemergence, 62 g ai/ha, scale 0 to 100, 0 no effect, 100 complete control

Cc1cc(C)c2sc(C)c(-c3c(O)c(C)nn(C)c3=O)c2c1 [Compound 2, 5-hydroxy-2,6-dimethyl-4-(2,5,7-trimethylbenzo[b]thien-3-yl)-3(2H)-pyridazinone]
Plant response rating, Barley, Spring [1, 14]: 0
Plant response rating, Barley, Spring [1, 15]: 5
Plant response rating, Barley, Spring [1, 16]: 5
Plant response rating (scale of 0 to 100), Barley, Spring ([1]; Preemergence, 31 g ai/ha): 0
Plant response rating, Barley, Spring [1, 17]: 0
Plant response rating, Barley, Spring [1, 18]: 0
Barley, Spring plant response rating [1, 19]: 0
Plant response rating, Barley, Spring [1, 20]: 0
Field Poppy plant response rating [2, 14]: 75
Plant response rating, Field Poppy [2, 15]: 100
Plant response rating, Field Poppy [2, 16]: 100
Plant response rating (scale of 0 to 100), Field Poppy ([2]; Preemergence, 31 g ai/ha): 95
Plant response rating, Field Poppy [2, 17]: 95
Plant response rating, Field Poppy [2, 18]: 95
Plant response rating, Field Poppy [2, 19]: 100
Plant response rating, Field Poppy [2, 20]: 95
Blackgrass plant response rating [3, 14]: 65
Plant response rating, Blackgrass [3, 15]: 80
Plant response rating, Blackgrass [3, 16]: 90
Plant response rating (scale of 0 to 100), Blackgrass ([3]; Preemergence, 31 g ai/ha): 65
Plant response rating, Blackgrass [3, 17]: 75
Plant response rating, Blackgrass [3, 18]: 85
Blackgrass plant response rating [3, 19]: 90
Plant response rating, Blackgrass [3, 20]: 70
Kochia plant response rating (kochia (Kochia scoparia); [14]): 50
Plant response rating, Kochia (kochia (Kochia scoparia); [15]): 65
Plant response rating, Kochia (kochia (Kochia scoparia); [16]): 70
Plant response rating (scale of 0 to 100), Kochia (kochia (Kochia scoparia); Preemergence, 31 g ai/ha): 0
Plant response rating, Kochia (kochia (Kochia scoparia); [17]): 0
Plant response rating, Kochia (kochia (Kochia scoparia); [18]): 0
Plant response rating, Kochia (kochia (Kochia scoparia); [19]): 20
Plant response rating, Kochia (kochia (Kochia scoparia); [20]): 60
Galium plant response rating [4, 14]: 85
Plant response rating, Galium [4, 15]: 100
Plant response rating, Galium [4, 16]: 100
Plant response rating (scale of 0 to 100), Galium ([4]; Preemergence, 31 g ai/ha): 100
Plant response rating, Galium [4, 17]: 85
Plant response rating, Galium [4, 18]: 100
Plant response rating, Galium [4, 19]: 100
Plant response rating, Galium [4, 20]: 100
Chamomile plant response rating [5, 14]: 70
Plant response rating, Chamomile [5, 15]: 90
Plant response rating, Chamomile [5, 16]: 100
Plant response rating (scale of 0 to 100), Chamomile ([5]; Preemergence, 31 g ai/ha): 80
Plant response rating, Chamomile [5, 17]: 100
Plant response rating, Chamomile [5, 18]: 95
Plant response rating, Chamomile [5, 19]: 100
Plant response rating, Chamomile [5, 20]: 80
Lambsquarters plant response rating [6, 14]: 90
Plant response rating, Lambsquarters [6, 15]: 95
Plant response rating, Lambsquarters [6, 16]: 100
Plant response rating (scale of 0 to 100), Lambsquarters ([6]; Preemergence, 31 g ai/ha): 15
Plant response rating, Lambsquarters [6, 17]: 60
Plant response rating, Lambsquarters [6, 18]: 100
Plant response rating, Lambsquarters [6, 19]: 100
Plant response rating, Lambsquarters [6, 20]: 90
Oilseed Rape plant response rating [7, 14]: 20
Plant response rating, Oilseed Rape [7, 15]: 55
Plant response rating, Oilseed Rape [7, 16]: 70
Plant response rating (scale of 0 to 100), Oilseed Rape ([7]; Preemergence, 31 g ai/ha): 0
Plant response rating, Oilseed Rape [7, 17]: 0
Plant response rating, Oilseed Rape [7, 18]: 20
Plant response rating, Oilseed Rape [7, 19]: 40
Plant response rating, Oilseed Rape [7, 20]: 45
Chickweed plant response rating [8, 14]: 85
Plant response rating, Chickweed [8, 15]: 100
Plant response rating, Chickweed [8, 16]: 100
Plant response rating (scale of 0 to 100), Chickweed ([8]; Preemergence, 31 g ai/ha): 90
Plant response rating, Chickweed [8, 17]: 100
Plant response rating, Chickweed [8, 18]: 100
Plant response rating, Chickweed [8, 19]: 100
Plant response rating, Chickweed [8, 20]: 95
Bromegrass, Downy plant response rating [9, 14]: 10
Plant response rating, Bromegrass, Downy [9, 15]: 10
Plant response rating, Bromegrass, Downy [9, 16]: 20
Plant response rating (scale of 0 to 100), Bromegrass, Downy ([9]; Preemergence, 31 g ai/ha): 10
Plant response rating, Bromegrass, Downy [9, 17]: 50
Plant response rating, Bromegrass, Downy [9, 18]: 65
Plant response rating, Bromegrass, Downy [9, 19]: 70
Plant response rating, Bromegrass, Downy [9, 20]: 10
Canarygrass plant response rating [10, 14]: 25
Plant response rating, Canarygrass [10, 15]: 55
Plant response rating, Canarygrass [10, 16]: 75
Plant response rating (scale of 0 to 100), Canarygrass ([10]; Preemergence, 31 g ai/ha): 40
Plant response rating, Canarygrass [10, 17]: 60
Plant response rating, Canarygrass [10, 18]: 85
Plant response rating, Canarygrass [10, 19]: 90
Plant response rating, Canarygrass [10, 20]: 40
Foxtail, Green plant response rating [11, 14]: 70
Plant response rating, Foxtail, Green [11, 15]: 95
Plant response rating, Foxtail, Green [11, 16]: 100
Plant response rating (scale of 0 to 100), Foxtail, Green ([11]; Preemergence, 31 g ai/ha): 65
Plant response rating, Foxtail, Green [11, 17]: 100
Plant response rating, Foxtail, Green [11, 18]: 100
Plant response rating, Foxtail, Green [11, 19]: 100
Plant response rating, Foxtail, Green [11, 20]: 80
Wheat, Spring plant response rating [12, 14]: 0
Plant response rating, Wheat, Spring [12, 15]: 10
Plant response rating, Wheat, Spring [12, 16]: 25
Plant response rating (scale of 0 to 100), Wheat, Spring ([12]; Preemergence, 31 g ai/ha): 0
Plant response rating, Wheat, Spring [12, 17]: 0
Plant response rating, Wheat, Spring [12, 18]: 5
Plant response rating, Wheat, Spring [12, 19]: 10
Plant response rating, Wheat, Spring [12, 20]: 0
Deadnettle plant response rating [13, 14]: 60
Plant response rating, Deadnettle [13, 15]: 60
Plant response rating, Deadnettle [13, 16]: 60
Plant response rating (scale of 0 to 100), Deadnettle ([13]; Preemergence, 31 g ai/ha): 0
Plant response rating, Deadnettle [13, 17]: 0
Plant response rating, Deadnettle [13, 18]: 0
Plant response rating, Deadnettle [13, 19]: 55
Plant response rating, Deadnettle [13, 20]: 60
